# Laboratory results published in US8865426B2, “Screening method using gelatinase-mediated EphA4 cleavage reaction as an indicator” (Eisai R&D Management Co., Ltd., priority 2010, dated 2014).
# Tests used:
# [1] = tested on: gelatinase (MMP-2, MMP-9)-mediated EphA4 ectodomain cleavage reaction; experiment: Western blot assay of NMDA-induced EphA4 cleavage (EphA4 endodomain fragment) in hippocampal primary cultured neurons; assay type: cell-based, rat
# Procedure: (§1) With the aim of identifying proteases which cleave off the EphA4 ectodomain in a neuronal activity-dependent manner, analysis was first performed using a specific inhibitor of gelatinase family molecules (MMP-2, MMP-9) having important functions in the brain. Neurostimulation was performed with 50 μM NMDA, and the inhibitor used was mmp-2/9 Inhibitor II ((2R)-[(4-biphenylylsulfonyl)amino]-N-hydroxy-3-phenylpropionamide, Merck). For detection of cleavage reaction, two types of antibody-based assays were used, i.e., Western blot assay using an antibody capable of recognizing the EphA4 endodomain and ELISA assay using an antibody capable of recognizing the EphA4 ectodomain.
# (§2) Hippocampi were isolated from SD rats at 18 days of embryonic age (Charles River Laboratories, Inc.) and provided for culture. More specifically, fetuses were aseptically taken from pregnant rats. From these fetuses, brains were excised and soaked in 20% FBS (Hyclone)/HBSS (SIGMA). From the excised brains, hippocampi were collected under a stereoscopic microscope. […] On the other hand, the neuronal cells were collected with PBS and then quantified for their protein levels, and 10 μg aliquots were subjected to SDS-PAGE, followed by Western blotting with an anti-EphA4 antibody capable of recognizing the endodomain.
# [2] = tested on: gelatinase (MMP-2, MMP-9)-mediated EphA4 ectodomain cleavage reaction; experiment: ELISA assay of NMDA-induced EphA4 cleavage (EphA4 ectodomain in cultured solution) in hippocampal primary cultured neurons; assay type: cell-based, rat
# Procedure: as §1, §2
neuronal activity-dependent EphA4 ectodomain cleavage reaction in hippocampal primary cultured neurons (summary statement) ([2]; concentration not given),"EphA4 cleavage event detected by ELISA with antibody recognizing the EphA4 ectodomain ([2]; hippocampal neuronal cells stimulated with 50 μM NMDA, 5 μM inhibitor, FIG. 2B)",SMILES,"induction of EphA4 cleavage reaction (EphA4 endodomain fragment detected) ([1]; hippocampal neuronal cells, 50 μM NMDA, 30 minutes, FIG. 2)","EphA4 cleavage reaction (EphA4 endodomain fragment, Western blot) ([1]; hippocampal neuronal cells stimulated with 50 μM NMDA, 0, 1, 5, 10 or 25 μM inhibitor added, FIG. 2A)"
,,CN[C@H](CC(=O)O)C(=O)O [NMDA],induced,
completely inhibited,completely inhibited,"O=C(NO)[C@@H](Cc1ccccc1)NS(=O)(=O)c1ccc(-c2ccccc2)cc1 [mmp-2/9 Inhibitor II, (2R)-[(4-Biphenylylsulfonyl)amino]-N-hydroxy-3-phenylpropionamide]",,inhibited in a concentration-dependent manner
